Assay: Three-point bending test of cured product
Format: physicochemical
Protocol: The composition prepared as described above was packed in a 2×2×25 mm SUS mold, covered with a cover film, and then irradiated with light from a dental visible light irradiator (α Light V, manufactured by J. Morita Tokyo MFG. Corp.) for 3 minutes on each side, namely, for a total of 6 minutes on both sides to cure the composition. The cured product was stored in deionized water at 37° C. for 24 hours, and then subjected to a three-point bending test with a general-purpose tester (Precise Versatile Material Tester 210X, manufactured by INTESCO Co., Ltd.) under conditions in which the distance between supports was 20 mm and the cross head speed was 1.0 mm/min. The results of the bending test of the cured products of the compositions to be used as the dental materials are shown in Table 2.

[1] = Table 2, composition: compound 1.80 g, UDMA 2.5 g, TEGDMA 0.74 g, plus 0.5 parts by weight TPO, cured product stored in deionized water at 37° C. 24 hours
[2] = Table 3, composition: compound 60, UDMA 30, TEGDMA 10 parts by weight, plus 0.5 parts TPO
[3] = Table 5, filled pasty composition in parts by weight: compound 8.0, UDMA 20, TEGDMA 10, 4-META 2.0, CQ 0.2, 2-butoxyethyl 4-(dimethylamino)benzoate 0.4, glass filler 59

Cured product bending test result Elastic modulus [1] [GPa] | Cured product bending test result Maximum stress [1] [MPa] | Cured product bending test result Elastic modulus [2] [GPa] | Cured product bending test result Maximum stress [2] [MPa] | SMILES | Cured product bending test result Elastic modulus [3] [GPa]
2.3 | 102 | 2.2 | 92 | C=C(C)C(=O)OCCNC(=O)OCC(COC(=O)NCCOC(=O)C(=C)C)OP(=O)(O)O [Compound 2] | 6.5
2.4 | 102 | 2.3 | 88 | C=C(C)C(=O)OCCNC(=O)OCC(COCC(COC(=O)NCCOC(=O)C(=C)C)OP(=O)(O)O)OC(=O)NCCOC(=O)C(=C)C (stereo not drawn) [Compound 4] | 
2.0 | 89 | 1.3 | 66 | C=C(C)C(=O)OCCOCCNC(=O)OCC(COC(=O)NCCOCCOC(=O)C(=C)C)OP(=O)(O)O [Compound 6] | 
1.7 | 85 | 0.32 | 22 | C=C(C)C(=O)OCCCCCCCCCCOP(=O)(O)O [MDP, 10-methacryloyloxydecyl dihydrogen phosphate, reference compound] | 5.7
